# ChEMBL document CHEMBL3769361, “Novel squaramides with in vitro liver stage antiplasmodial activity” (Bioorg Med Chem, 2016)
# pIC50: −log10 of the molar value.
# Key:
# Plasmodium berghei [1] = assay: Potency index, ratio of bulaquine IC50 to compound IC50 for liver stage Plasmodium berghei infected in Huh7 cells; format: functional, Huh-7
# Plasmodium berghei [2] = assay: Antiplasmodial activity against liver stage Plasmodium berghei infected in Huh7 cells assessed as inhibition of parasite infection incubated for 1 hr prior to infection measured at 24 hrs by luciferase reporter gene assay; format: functional, organism-based; settings: Huh-7, Liver
# [3] = Cytotoxicity against human HuH7 cells infected with Plasmodium berghei assessed as cell proliferation at 1 to 10 uM by Alamar blue assay; format: cell-based; settings: huh-7, 10 µM
# [4] = Cytotoxicity against HEK293T cells assessed as cell viability after 48 hrs by MTT assay; format: cell-based; settings: Homo sapiens, HEK-293T
# Plasmodium falciparum [5] = assay: Antiplasmodial activity against chloroquine-resistant Plasmodium falciparum W2 infected in human erythrocytes after 48 hrs by flow cytometry; format: functional, organism-based; settings: W2, 48 h
# Plasmodium falciparum [6] = assay: Antiplasmodial activity against chloroquine-resistant Plasmodium falciparum W2 infected in human erythrocytes after 24 hrs by [3H]-hypoxanthine incorporation assay; format: functional, organism-based
Structure (SMILES),Ratio IC50 (Plasmodium berghei [1]),pIC50 (Plasmodium berghei [2]),Activity [3],pIC50 [4],pIC50 (Plasmodium falciparum [5]),pIC50 (Plasmodium falciparum [6])
CCCCOc1c(NCCCC(C)Nc2cc(OC)cc3cccnc23)c(=O)c1=O (configuration not stated),4.3,5.89,–,–,–,–
COc1cc(NC(C)CCCNc2c(NCCCC(C)Nc3cc(OC)cc4cccnc34)c(=O)c2=O)c2ncccc2c1 (configuration not stated),4.3,5.89,–,–,–,–
CCCCOc1c(NCCNc2cc(OC)cc3cccnc23)c(=O)c1=O,–,–,Non-toxic,< 4.00,5.07,–
CCCCOc1c(Nc2cc(OC)cc3cccnc23)c(=O)c1=O,–,–,Non-toxic,–,< 5.00,–
COc1cc(NC(C)CCCN/C(C)=C2/CCOC2=O)c2ncccc2c1 (configuration not stated),–,5.00,–,–,–,5.80
CCCCNc1c(NCCCC(C)Nc2cc(OC)cc3cccnc23)c(=O)c1=O (configuration not stated),–,–,Non-toxic,–,< 5.00,–
CCCCOc1c(NCCC(C)Nc2cc(OC)cc3cccnc23)c(=O)c1=O (configuration not stated),–,–,Non-toxic,< 4.00,5.29,–
CCCCOc1c(NCCCCCNc2cc(OC)cc3cccnc23)c(=O)c1=O,4.3,5.66,Non-toxic,< 4.00,< 5.00,–
CCCCOc1c(NCCCNc2cc(OC)cc3cccnc23)c(=O)c1=O,4.3,5.74,Non-toxic,< 4.00,5.29,–
CCOc1c(NCCCC(C)Nc2cc(OC)cc3cccnc23)c(=O)c1=O (configuration not stated),–,–,Non-toxic,< 4.00,5.14,–
COc1cc(NC(C)CCCNc2c(OC)c(=O)c2=O)c2ncccc2c1 (configuration not stated),–,–,Non-toxic,–,< 5.00,–
COc1cc(NC(C)CCCN)c2ncccc2c1 (configuration not stated) [PRIMAQUINE],–,5.02,–,–,–,–
